Patent publication US20140308261A1, “HLA-DR7 HY epitope and method for treating leukaemia” (Etablissement Français du Sang, priority 2011, published 2014)

Test system: CD4^+ T-lymphocytes
Assay: Cytokine mRNA expression profile after stimulation of CD4+ T-lymphocytes with short peptides from QR-40 pulsed on HLA-DR7 EBV cells
Type: cell-based, human
From the text: The total RNA of the clones or cell lines was isolated from 1×10^6 cells by using the Rnagent kit (Promega, Madison, Wis., United States). The total RNA was converted to single stranded cDNA by using an oligo (dT) primer (Amersham Pharmacia Biotech, Orsay, France) and the reverse transcriptase of the avian myeloblastosis virus, in conformance with the manufacturer's specifications (Promega).
HY-specific CD4^+ T-lymphocytes were stimulated, each with […] EBV-B LCL transduced with the HY gene. The proliferation and production of IFN-γ were measured by the incorporation of ^3H-[methyl-thymidine] on day 3, and ELISA on day 1. To map the precise T-lymphocyte epitope restricted to the MHC class II, the inventors synthesized several long peptides with a potential bond with DRB1*0701 encoded in the RPS4Y regions which are different from RPS4X, based on several databases for MHC peptide binding, such as SYFPEITHI, Net-MHC, Propred and HotSpot Hunter. These peptides were tested at various concentrations: from 100 μM to 10 nM, using […] EBV-B-LCLs that express the HLA-DRB1*0701 molecule in the form of APC. The short peptide in question was identified using a series of peptides of 15 amino acids, also identified from these databases, and which are present in the long peptide which induces a positive response.
The inventors were therefore able to identify TGKIINFIKFDTGNL (SEQ ID NO: 1) as the HY peptide epitope recognized by the CD4^+ T-lymphocytes (FIG. 6). […] It is interesting to note that the cloned T-lymphocytes presented the same cytokine profile as the T-lymphocyte cell line.

[1] = female HLA-DR7 EBV cells pulsed with peptide

Row | Sequence | FoxP3/CD3ε mRNA ratio (peptide 1 μM) | IFNγ/CD3ε mRNA ratio (peptide 1 μM) | IL2/CD3ε mRNA ratio (peptide 1 μM) | FoxP3/CD3ε mRNA ratio (peptide 10 μM) | IFNγ/CD3ε mRNA ratio (peptide 10 μM) | IL2/CD3ε mRNA ratio (peptide 10 μM) | stimulation of the CD4+ T-lymphocytes by 15-mer peptides in QR-40 (in words) (Table 9) | FoxP3 mRNA response (in words) (at 1 μM) | IFNγ mRNA induction (in words) [1] | IL-2 mRNA expression (in words) [1]
1 | GKIINFIKFDTGNLCMV (Peptide GV17) [short peptide from peptide QR-40] | 0.12 | 0.12 | 0.02 | 0.27 | 0.82 | 0.02 | – | – | – | –
2 | TGKIINFIKFDTGNL (peptide TL15) [HY epitopic 15-mer peptide from RPS4Y presented by HLA-DR7] | 0.42 | 9.91 | 0.06 | 0.44 | 12.63 | 0.23 | stimulated the cells | highest FoxP3 mRNA response | specific IFNγ induction | low IL-2 mRNA expression
3 | TGNLCMVIGGANLGRVG (Peptide TG17-1) [short peptide from peptide QR-40] | 0.12 | 0.11 | 0.006 | 0.32 | 0.11 | 0.02 | – | – | – | –
4 | TGNVCMVIAGANLGRVG (Peptide TG17-2) [short peptide tested with the QR-40 peptides] | 0.23 | 0.009 | 0.0047 | 0.3 | 0.5 | 0.01 | – | – | – | –
